Laboratory results reported in patent publication US11279691B2, “Substituted pyridine and pyrazine compounds as PDE4 inhibitors” (Dart Neuroscience LLC, priority 2013, dated 2022).

Target: T1, PDE4D3 (Homo sapiens, UniProt Q08499)
T1 construct: GST
Assay type: biochemical
Conditions: GST-tagged PDE4D3, 200 nM FAM-cAMP, 11-point dose-response; read-out: PD4d3 pEC50 (converted)

T1 sequence (Q08499 1-673 isoform Q08499-2): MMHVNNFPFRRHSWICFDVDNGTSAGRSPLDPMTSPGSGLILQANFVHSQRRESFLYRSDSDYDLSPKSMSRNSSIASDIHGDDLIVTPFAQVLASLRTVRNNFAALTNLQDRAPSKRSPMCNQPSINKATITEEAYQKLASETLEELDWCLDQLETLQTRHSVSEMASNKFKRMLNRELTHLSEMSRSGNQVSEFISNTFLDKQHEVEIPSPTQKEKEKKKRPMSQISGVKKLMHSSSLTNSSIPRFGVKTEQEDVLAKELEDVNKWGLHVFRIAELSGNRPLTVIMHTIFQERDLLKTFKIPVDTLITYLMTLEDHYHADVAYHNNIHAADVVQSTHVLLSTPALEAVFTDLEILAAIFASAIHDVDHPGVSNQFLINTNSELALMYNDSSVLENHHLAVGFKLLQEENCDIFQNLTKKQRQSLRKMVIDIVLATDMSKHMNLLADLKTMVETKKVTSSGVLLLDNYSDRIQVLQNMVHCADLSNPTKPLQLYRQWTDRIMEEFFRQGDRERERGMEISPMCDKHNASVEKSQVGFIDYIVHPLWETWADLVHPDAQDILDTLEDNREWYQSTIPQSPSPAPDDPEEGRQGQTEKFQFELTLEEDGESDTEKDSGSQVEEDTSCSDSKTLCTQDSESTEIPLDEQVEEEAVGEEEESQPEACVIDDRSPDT

| SMILES | EC50 |
| --- | --- |
| COc1ncc(Cc2cnc(NCCO)cn2)cc1-c1cccc(Cl)c1 [Example 290, 2-((5-((5-(3-Chlorophenyl)-6-methoxypyridin-3-yl)methyl)pyrazin-2-yl)amino) ethanol] | < 100 nM |
| COc1ncc(Cc2cnc(N3CCOCC3)nc2)cc1-c1cccc(Cl)c1 [Example 292] | 1000 to 10000 nM |
| CCOc1ncc(Cc2cnc(N)nc2)nc1-c1ccc(F)c(F)c1 [Example 293, 5-((6-(3,4-difluorophenyl)-5-ethoxypyrazin-2-yl)methyl)pyrimidin-2-amine] | < 100 nM |
| CCOc1ncc(Cc2cnc(NCCO)nc2)nc1-c1ccc(F)c(F)c1 [Example 294, 2-((5-((6-(3,4-difluorophenyl)-5-ethoxypyrazin-2-yl)methyl)pyrimidin-2-yl)amino)ethanol] | < 100 nM |
| COc1ncc(Cn2nnnc2CCO)cc1-c1cccc(Cl)c1 [Example 295, 2-(1-((5-(3-Chlorophenyl)-6-methoxypyridin-3-yl)methyl)-1H-tetrazol-5-yl)ethanol] | 1000 to 10000 nM |
| CCOc1ncc(Cn2nnnc2C)cc1-c1ccc(F)cc1 [Example 296, 2-Ethoxy-3-(4-fluorophenyl)-5-((5-methyl-1H-tetrazol-1-yl)methyl)pyridine] | < 100 nM |
| COc1ncc(Cn2cc(C(F)F)nc2C)cc1-c1ccnc(OC(F)F)c1 [Example 297, 2′-(Difluoromethoxy)-5-((4-(difluoromethyl)-2-methyl-1H-imidazol-1-yl)methyl)-2-methoxy-3,4′-bipyridine] | 100 to 1000 nM |
| COc1ncc(Cc2cnc(OCC(N)=O)nc2)cc1-c1cccc(Cl)c1 [Example 298, 2-((5-((5-(3-Chlorophenyl)-6-methoxypyridin-3-yl)methyl)pyrimidin-2-yl)oxy)acetamide] | < 100 nM |
| COc1ncc(Cc2cnc(CO)nc2)cc1-c1cccc(Cl)c1 [Example 299, (5-((5-(3-Chlorophenyl)-6-methoxypyridin-3-yl)methyl)pyrimidin-2-yl)methanol] | < 100 nM |
| OCc1ncn(Cc2cnc(OCC(F)(F)F)c(-c3cccc(Cl)c3)c2)n1 [Example 300, (1-((5-(3-Chlorophenyl)-6-(2,2,2-trifluoroethoxy)pyridin-3-yl)methyl)-1H-1,2,4-triazol-3-yl)methanol] | 100 to 1000 nM |
| COc1ncc(Cc2cnc(N)c(F)c2)cc1-c1ccnc(OC(F)F)c1 [Example 301, 5-((2′-(Difluoromethoxy)-2-methoxy-[3,4′-bipyridin]-5-yl)methyl)-3-fluoropyridin-2-amine] | < 100 nM |
| COc1ncc(Cc2cnc(O)nc2)cc1-c1cccc(Cl)c1 [Example 302, 5-((5-(3-Chlorophenyl)-6-methoxypyridin-3-yl)methyl)pyrimidin-2-ol] | 1000 to 10000 nM |
| COc1ncc(Cc2cnc(OCCO)nc2)cc1-c1cccc(Cl)c1 [Example 303, 2-((5-((5-(3-Chlorophenyl)-6-methoxypyridin-3-yl)methyl)pyrimidin-2-yl)oxy)ethanol] | < 100 nM |
| COc1ncc(Cc2cnc(OC(F)F)nc2)cc1-c1cccc(Cl)c1 [Example 304, 5-((5-(3-Chlorophenyl)-6-methoxypyridin-3-yl)methyl)-2-(difluoromethoxy)pyrimidine] | 100 to 1000 nM |
| COc1ncc(Cc2cnnc(C)c2)cc1-c1cccc(Cl)c1 [Example 305, 5-{[5-(3-Chlorophenyl)-6-methoxypyridin-3-yl]methyl}-3-methylpyridazine] | 100 to 1000 nM |
| CCOc1ncc(Cc2cncc(F)c2)cc1-c1ccnc(OC(F)F)c1 [Example 306, 3-[2-(Difluoromethoxy)pyridin-4-yl]-2-ethoxy-5-[(5-fluoropyridin-3-yl)methyl]pyridine] | < 100 nM |
| COc1ncc(Cn2ccc(C(N)=O)n2)cc1-c1ccnc(C#N)c1 [Example 307, 1-{[5-(2-Cyanopyridin-4-yl)-6-methoxypyridin-3-yl]methyl}-1H-pyrazole-3-carboxamide] | 1000 to 10000 nM |
| COc1ncc(Cn2ccc(C(N)=O)n2)cc1-c1cccc(Cl)c1 [Example 308, 1-{[5-(3-Chlorophenyl)-6-methoxypyridin-3-yl]methyl}-1H-pyrazole-3-carboxamide] | 100 to 1000 nM |
| COc1ncc(Cn2ccc(C(N)=O)n2)cc1-c1ccnc(OC(F)F)c1 [Example 309, 1-({5-[2-(Difluoromethoxy)pyridin-4-yl]-6-methoxypyridin-3-yl}methyl)-1H-pyrazole-3-carboxamide] | < 100 nM |
| CCOc1ncc(Cn2cnc(C(N)=O)c2)cc1-c1cccc(Cl)c1 [Example 310, 1-{[5-(3-Chlorophenyl)-6-ethoxypyridin-3-yl]methyl}-1H-imidazole-4-carboxamide] | 100 to 1000 nM |
| CCOc1ncc(Cn2cnc(C(N)=O)c2)cc1-c1ccnc(OC(F)F)c1 [Example 311, 1-({5-[2-(Difluoromethoxy)pyridin-4-yl]-6-ethoxypyridin-3-yl}methyl)-1H-imidazole-4-carboxamide] | 100 to 1000 nM |
| CCOc1ncc(Cn2cnc(C(N)=O)c2)nc1-c1cccc(Cl)c1 [Example 312, 1-{[6-(3-Chlorophenyl)-5-ethoxypyrazin-2-yl]methyl}-1H-imidazole-4-carboxamide] | < 100 nM |

| SMILES | EC50 |
| --- | --- |
| CCOc1ncc(Cn2ccc(C(N)=O)n2)nc1-c1cccc(Cl)c1 [Example 313, 1-{[6-(3-Chlorophenyl)-5-ethoxypyrazin-2-yl]methyl}-1H-pyrazole-3-carboxamide] | 100 to 1000 nM |
| CCOc1ncc(Cn2cnc(C(N)=O)c2)nc1-c1ccc(F)c(F)c1 [Example 314, 1-{[6-(3,4-Difluorophenyl)-5-ethoxypyrazin-2-yl]methyl}-1H-imidazole-4-carboxamide] | 100 to 1000 nM |
| COc1ncc(Cn2cc(CO)nc2C)cc1-c1ccnc(OC(F)F)c1 [Example 315, [1-({5-[2-(Difluoromethoxy)pyridin-4-yl]-6-methoxypyridin-3-yl}methyl)-2-methyl-1H-imidazol-4-yl]methanol] | 100 to 1000 nM |
| COc1ncc(Cn2nc(CO)cc2C)cc1-c1ccnc(OC(F)F)c1 [Example 316, [1-({5-[2-(Difluoromethoxy)pyridin-4-yl]-6-methoxypyridin-3-yl}methyl)-5-methyl-1H-pyrazol-3-yl]methanol] | 100 to 1000 nM |
| CCOc1ncc(Cn2nc(N)cc2C)cc1-c1cccc(Cl)c1 [Example 317, 1-{[5-(3-Chlorophenyl)-6-ethoxypyridin-3-yl]methyl}-5-methyl-1H-pyrazol-3-amine] | 100 to 1000 nM |
| COc1ncc(Cc2cnc(OCC(C)(C)O)nc2)cc1-c1cccc(Cl)c1 [Example 318, 1-[(5-{[5-(3-Chlorophenyl)-6-methoxypyridin-3-yl]methyl}pyrimidin-2-yl)oxy]-2-methylpropan-2-ol] | 1000 to 10000 nM |
| CCOc1ncc(Cn2c(CO)cnc2C)cc1-c1cccc(Cl)c1 [Example 319, (1-{[5-(3-Chlorophenyl)-6-ethoxypyridin-3-yl]methyl}-2-methyl-1H-imidazol-5-yl)methanol] | 100 to 1000 nM |
| CCOc1ncc(Cn2nc(C)cc2CO)cc1-c1cccc(Cl)c1 [Example 320, (1-{[5-(3-Chlorophenyl)-6-ethoxypyridin-3-yl]methyl}-3-methyl-1H-pyrazol-5-yl)methanol] | > 10000 nM |
| Cc1nc(CO)cn1Cc1cnc(OC(F)F)c(-c2cccc(Cl)c2)c1 [Example 321, (1-{[5-(3-Chlorophenyl)-6-(difluoromethoxy)pyridin-3-yl]methyl}-2-methyl-1H-imidazol-4-yl)methanol] | 100 to 1000 nM |
| COc1ncc(Cn2cc(CO)nc2C)nc1-c1cccc(Cl)c1 [Example 322, (1-{[6-(3-Chlorophenyl)-5-methoxypyrazin-2-yl]methyl}-2-methyl-1H-imidazol-4-yl)methanol] | 100 to 1000 nM |
| CCOc1ncc(Cn2nc(CO)cc2C)nc1-c1cccc(Cl)c1 [Example 323, (1-{[6-(3-Chlorophenyl)-5-ethoxypyrazin-2-yl]methyl}-5-methyl-1H-pyrazol-3-yl)methanol] | 1000 to 10000 nM |
| CCOc1ncc(Cn2cc(CO)nc2C)nc1-c1cccc(Cl)c1 [Example 324, (1-{[6-(3-Chlorophenyl)-5-ethoxypyrazin-2-yl]methyl}-2-methyl-1H-imidazol-4-yl)methanol] | 100 to 1000 nM |
| CCOc1ncc(Cn2nc(CO)cc2C)cc1-c1cccc(Cl)c1 [Example 325, (1-{[5-(3-Chlorophenyl)-6-ethoxypyridin-3-yl]methyl}-5-methyl-1H-pyrazol-3-yl)methanol] | < 100 nM |
| CCOc1ncc(Cn2cc(CO)nc2C)cc1-c1cccc(Cl)c1 [Example 326, (1-{[5-(3-Chlorophenyl)-6-ethoxypyridin-3-yl]methyl}-2-methyl-1H-imidazol-4-yl)methanol] | < 100 nM |
| CCOc1ncc(Cn2cnc(CO)n2)cc1-c1cccc(OC)c1 [Example 327, (1-{[6-Ethoxy-5-(3-methoxyphenyl)pyridin-3-yl]methyl}-1H-1,2,4-triazol-3-yl)methanol] | < 100 nM |
| CCOc1ncc(Cn2cnc(CO)n2)cc1-c1ccc(Cl)cc1 [Example 328, (1-{[5-(4-Chlorophenyl)-6-ethoxypyridin-3-yl]methyl}-1H-1,2,4-triazol-3-yl)methanol] | 100 to 1000 nM |
| CCOc1ncc(Cn2cnc(CO)n2)cc1-c1cncc(Cl)c1 [Example 329, (1-{[5-(5-Chloropyridin-3-yl)-6-ethoxypyridin-3-yl]methyl}-1H-1,2,4-triazol-3-yl)methanol] | 1000 to 10000 nM |
| CCOc1ncc(Cn2cnc(CO)n2)cc1-c1ccc(Cl)c(Cl)c1 [Example 330, (1-{[5-(3,4-Dichlorophenyl)-6-ethoxypyridin-3-yl]methyl}-1H-1,2,4-triazol-3-yl)methanol] | 100 to 1000 nM |
| CCOc1ncc(Cn2cnc(CO)n2)cc1-c1ccc(F)c(C)c1 [Example 331, (1-{[6-Ethoxy-5-(4-fluoro-3-methylphenyl)pyridin-3-yl]methyl}-1H-1,2,4-triazol-3-yl)methanol] | 100 to 1000 nM |
| CCOc1ncc(Cn2cnc(CO)n2)cc1-c1cccc(C(F)(F)F)c1 [Example 332, [1-({6-Ethoxy-5-[3-(trifluoromethyl)phenyl]pyridin-3-yl}methyl)-1H-1,2,4-triazol-3-yl]methanol] | 1000 to 10000 nM |
| CCOc1ncc(Cn2cnc(CO)n2)cc1-c1cccc(OC(F)(F)F)c1 [Example 333, [1-({6-Ethoxy-5-[3-(trifluoromethoxy)phenyl]pyridin-3-yl}methyl)-1H-1,2,4-triazol-3-yl]methanol] | 100 to 1000 nM |
